# Source: ChEMBL document CHEMBL4414661, “Trikoramide A, a Prenylated Cyanobactin from the Marine Cyanobacterium Symploca hydnoides” (J Nat Prod, 2019)
# The source made the active and inactive calls. The rule behind the calls is not given here. Numbered stars: 1 amine (or outer) side, 2 acyl side, 3 side chain; on linkers, the order of the positions; unused ones are H or OH. Square brackets hold non-standard residues; d marks the D form. Peptide text beside a SMILES is read from it. X1 = CC(C)=CC[C@@]12C[C@@H](C(=O)[*:2])N([*:1])[C@@H]1Nc1ccccc12
# Tests used:
# Staphylococcus aureus = assay: Antibacterial activity against methicillin-resistant Staphylococcus aureus assessed as bacterial growth inhibition at 100 uM measured after 16 hrs by microplate reader assay; type: functional, organism-based
# MCF7 = assay: Cytotoxicity against human MCF7 cells measured after 24 hrs by MTT assay; type: functional, cell-based; conditions: MCF7, 24 h
# [1] = Inhibition of quorum sensing system in Pseudomonas aeruginosa PAO1 transfected with lasB-GFP at 10 uM by measuring reduction in fluorescence intensity up to 16 hrs by fluorescence assay relative to control
# Klebsiella pneumoniae = assay: Antibacterial activity against Klebsiella pneumoniae assessed as bacterial growth inhibition at 100 uM measured after 16 hrs by microplate reader assay; type: functional, organism-based
# Escherichia coli = assay: Antibacterial activity against Escherichia coli assessed as bacterial growth inhibition at 100 uM measured after 16 hrs by microplate reader assay; type: functional, organism-based
# MOLT-4 = assay: Cytotoxicity against human MOLT4 cells measured after 24 hrs by MTT assay; type: functional, cell-based; conditions: MOLT-4, 24 h
# OCI-AML2 = assay: Cytotoxicity against human OCI-AML2 cells measured after 24 hrs by MTT assay; type: functional, cell-based; conditions: OCI-AML2, 24 h
structure (smiles),measurement,setting,value
CC(C)=CC[C@@]12C[C@H]3C(=O)N[C@@H](CC(C)C)C(=O)N[C@@H](Cc4ccccc4)C(=O)N4CCC[C@H]4C(=O)N[C@@H](CC(C)C)C(=O)N4CCC[C@H]4C(=O)N[C@@H](CC(C)C)C(=O)N4CCC[C@H]4C(=O)N[C@@H](C(C)C)C(=O)N4CCC[C@H]4C(=O)N3[C@@H]1Nc1ccccc12 (cyclo(FPLPLPVP[X1]L)),Activity,Staphylococcus aureus,inactive
same,IC50,MCF7,19 µM
same,inhibition,[1],26%
same,Activity,Klebsiella pneumoniae,inactive
same,Activity,Escherichia coli,inactive
same,IC50,MOLT-4,5.75 µM
same,IC50,OCI-AML2,8.2 µM
